Legend:
HiBit-KRAS^G12C [1] = biological target: T1, HiBit-KRAS^G12C (Homo sapiens, UniProt P01116, G12C); experiment: HiBit degradation assay in SW1573 HiBit-KRas^G12C cells; format: cell-based; set-up: expressed in transfected cells; host or cells: SW1573 (clone E6), modified pcDNA3.1 vector, TK promoter; conditions: 24 hours
Procedure, shortened: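 HiBit-KRAS G12C degradation was measured after a 24 h compound exposure (titrated 10 μM–20 nM) in engineered SW1573 cells. Lytic HiBit luminescence, expressed relative to DMSO controls, yielded DC50 and Dmax from 4-parameter fits. Concentrations causing ≥50% loss in alamar blue viability were omitted as cytotoxic.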

HiBit-KRAS^G12C [2] = biological target: T1, HiBit-KRAS^G12C; experiment: HiBit degradation assay in MiaPaCa-2 HiBit-KRas^G12C cells; format: cell-based; conditions: 24 hours; for DC50: read-out: KRas^G12C-HiBiT (MiaPaCa; 0.5% DMSO) IC50
Procedure, shortened: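 DC50 and Dmax come from 4-parameter fits of DMSO-normalized HiBit luminescence after 24 hours' exposure at 37° C to 10 μM–20 nM compound in 0.1% or 0.5% DMSO. Cells: MiaPaCa-2 carrying one endogenously HiBit-tagged KRAS^G12C allele; concentrations causing ≥50% […] viability loss (alamar blue) excluded.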

[3] = SW1573, SW1573 HiBit-KRas^G12C, 0.5% DMSO, read-out: KRas^G12C-HiBiT (SW1573; 0.5% DMSO) Dmax**
[4] = read-out: KRas^G12C-HiBiT (SW1573; 0.5% DMSO) IC50***, SW1573 HiBit-KRas^G12C, 0.5% DMSO
[5] = MIA PaCa-2, MiaPaCa-2 HiBit-KRas^G12C cells, 0.5% DMSO, maximum degradation, read-out: KRas^G12C-HiBiT (MiaPaCa; 0.5% DMSO) DMax
[6] = MiaPaCa-2 HiBit-KRas^G12C cells, 0.5% DMSO

T1 sequence (P01116 1-186 isoform P01116-2 G12C limits assumed): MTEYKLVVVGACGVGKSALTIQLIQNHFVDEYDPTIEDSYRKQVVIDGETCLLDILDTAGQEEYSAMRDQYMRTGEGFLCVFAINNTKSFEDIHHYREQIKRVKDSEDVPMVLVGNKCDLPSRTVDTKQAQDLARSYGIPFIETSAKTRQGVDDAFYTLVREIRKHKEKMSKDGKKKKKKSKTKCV

Row | Structure (SMILES) | Dmax (HiBit-KRAS^G12C [1]; [3]) | DC50 (HiBit-KRAS^G12C [1]; [4]) | Dmax (HiBit-KRAS^G12C [2]; [5]) | DC50 (HiBit-KRAS^G12C [2]; [6]) | KRas^G12C-HiBiT (MiaPaCa; 0.5% DMSO) DMax (HiBit-KRAS^G12C [2]; MiaPaCa-2 HiBit-KRas^G12C cells, 0.5% DMSO, maximum degradation) | Dmax (HiBit-KRAS^G12C [1]; SW1573, SW1573 HiBit-KRas^G12C, 0.1% DMSO, read-out: KRas^G12C-HiBit (SW1573; 0.1% DMSO) Dmax**) | DC50 (HiBit-KRAS^G12C [1]; SW1573 HiBit-KRas^G12C, 0.1% DMSO, read-out: KRas^G12C-HIBit (SW1573; 0.1% DMSO) DC50*) | Dmax (HiBit-KRAS^G12C [2]; MIA PaCa-2, MiaPaCa-2 HiBit-KRas^G12C cells, 0.1% DMSO, maximum degradation, read-out: KRas^G12C-HiBiT (MiaPaCa; 0.1% DMSO) DMax) | Dmax (HiBit-KRAS^G12C [1]; SW1573, read-out: KRas^G12C-HiBiT (SW1573; 0.5% DMSO) Dmax**, SW1573 HiBit-KRas^G12C, 0.5% DMSO) | Dmax (HiBit-KRAS^G12C [2]; MIA PaCa-2, read-out: KRas^G12C-HiBiT (MiaPaCa; 0.5% DMSO) DMax, MiaPaCa-2 HiBit-KRas^G12C cells, 0.5% DMSO, maximum degradation)
1 | C=CC(=O)N1CCN(c2nc(OCCN3CCC(COc4cc([C@H](C(=O)N5C[C@H](O)C[C@H]5C(=O)N[C@@H](C)c5ccc(-c6ccnn6C)cc5)C(C)C)on4)CC3)nc3c(F)c(-c4cc(O)cc5ccccc45)c(Cl)cc23)C[C@@H]1CC#N (atropisomer, axis not shown) [Compound 138, (2S,4R)-1-[(2R)-2-[3-({1-[2-({6-chloro-4-[(3S)-3-(cyanomethyl)-4-(prop-2-enoyl)piperazin-1-yl]-8-fluoro-7-(3-hydroxynaphthalen-1-yl)quinazolin-2-yl}oxy)ethyl]-piperidin-4-yl}methoxy)-1,2-oxazol-5-yl]-3-methylbutanoyl]-4-hydroxy-N-[(1S)-1-[4-(1-methyl-1H-pyrazol-5-yl)phenyl]ethyl]pyrrolidine-2-carboxamide] | > 70% | < 100 nM | > 70% | 100 to 1000 nM | – | – | – | – | – | –
2 | C=CC(=O)N1CCN(c2nc(OCCN3CCC(COc4cc([C@H](C(=O)N5C[C@H](O)C[C@H]5C(=O)N[C@@H](C)c5ccc(-c6scnc6C)cc5)C(C)C)on4)CC3)nc3c(F)c(-c4cc(O)cc5ccccc45)c(Cl)cc23)CC1 (atropisomer, axis not shown) [Compound 147, (2S,4R)-1-[(2R)-2-(3-{[1-(2-{[6-chloro-8-fluoro-7-(3-hydroxynaphthalen-1-yl)-4-[4-(prop-2-enoyl)piperazin-1-yl]quinazolin-2-yl]oxy}ethyl)piperidin-4-yl]methoxy}-1,2-oxazol-5-yl)-3-methylbutanoyl]-4-hydroxy-N-[(1S)-1-[4-(4-methyl-1,3-thiazol-5-yl)phenyl]ethyl]pyrrolidine-2-carboxamide] | > 70% | 100 to 1000 nM | – | 100 to 1000 nM | B (35 < B < 70) | – | – | – | – | –
3 | C=C(F)C(=O)N1CCN(c2nc(OCCN3CCC(OCCOc4cc([C@H](C(=O)N5C[C@H](O)C[C@H]5C(=O)N[C@@H](C)c5ccc(-c6scnc6C)cc5)C(C)C)on4)CC3)nc3c(F)c(-c4cc(O)cc5ccccc45)c(Cl)cc23)C[C@@H]1CC#N [Compound 16, (2S,4R)-1-[(2R)-2-{3-[2-({1-[2-({6-chloro-4-[(3S)-3-(cyanomethyl)-4-(2-fluoroprop-2-enoyl)piperazin-1-yl]-8-fluoro-7-(3-hydroxynaphthalen-1-yl)quinazolin-2-yl}oxy)ethyl]piperidin-4-yl}oxy)ethoxy]-1,2-oxazol-5-yl}-3-methylbutanoyl]-4-hydroxy-N-[(1S)-1-[4-(4-methyl-1,3-thiazol-5-yl)phenyl]ethyl]pyrrolidine-2-carboxamide] | > 70% | – | > 70% | – | – | > 70% | 100 to 1000 nM | 35 to 70% | – | –
4 | C=CC(=O)N1CCN(c2nc(OCCN3CCC4(CC3)CN(CC(=O)N[C@H](C(=O)N3C[C@H](O)C[C@H]3C(=O)N[C@@H](C)c3ccc(-c5scnc5C)cc3)C(C)(C)C)C4)nc3c(F)c(-c4cc(O)cc5ccccc45)c(Cl)cc23)C[C@@H]1CC#N [Compound 145, (2S,4R)-1-[(2S)-2-(2-{7-[2-({6-chloro-4-[(3S)-3-(cyanomethyl)-4-(prop-2-enoyl)piperazin-1-yl)-8-fluoro-7-(3-hydroxynaphthalen-1-yl)quinazolin-2-yl}oxy)ethyl]-2,7-diazaspiro[3.5]nonan-2-yl}acetamido)-3,3-dimethylbutanoyl]-4-hydroxy-N-[(1S)-1-[4-(4-methyl-1,3-thiazol-5-yl)phenyl]ethyl]pyrrolidine-2-carboxamide] | – | 100 to 1000 nM | – | 100 to 1000 nM | – | – | – | – | > 70% | 35 to 70%

Source: patent US20220370416A1, “COMPOUNDS AND METHODS FOR TARGETED DEGRADATION OF KRAS” (Arvinas Operations, Inc., priority 2020, published 2022)
